# Experimental data published in ChEMBL document CHEMBL1143927, “Investigation of novel 7,8-disubstituted-5,10-dihydro-dibenzo[b,e][1,4]diazepin-11-ones as potent Chk1 inhibitors” (Bioorg Med Chem Lett, 2008).
# Key:
# [1] = biological target: T1, Serine/threonine-protein kinase Chk1 (Homo sapiens, UniProt O14757); experiment: Inhibition of recombinant Chk1
# T1 sequence (O14757 whole entry): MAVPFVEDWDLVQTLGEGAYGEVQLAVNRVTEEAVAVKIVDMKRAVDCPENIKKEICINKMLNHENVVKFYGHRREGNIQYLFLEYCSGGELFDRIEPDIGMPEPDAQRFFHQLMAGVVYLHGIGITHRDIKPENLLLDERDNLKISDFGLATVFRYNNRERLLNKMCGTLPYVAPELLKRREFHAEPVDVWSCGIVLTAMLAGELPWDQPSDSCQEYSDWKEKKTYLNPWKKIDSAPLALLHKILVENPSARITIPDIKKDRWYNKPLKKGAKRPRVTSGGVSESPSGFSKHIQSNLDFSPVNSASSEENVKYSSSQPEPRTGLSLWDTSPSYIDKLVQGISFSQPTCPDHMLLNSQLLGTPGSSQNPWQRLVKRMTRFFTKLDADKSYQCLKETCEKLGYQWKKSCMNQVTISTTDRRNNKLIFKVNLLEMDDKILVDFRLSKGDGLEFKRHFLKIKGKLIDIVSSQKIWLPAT
# [2] = biological target: T1, Serine/threonine-protein kinase Chk1; experiment: Inhibition of human Chk1 in H1299 cells assessed as blockade of Cdc25A degradation; type: cell-based
# [3] = Cell cycle arrest in human H1299 cells assessed as accumulation at G2/M phase by FACS; type: functional, cell-based; details: NCI-H1299
# HeLa = experiment: Antiproliferative activity against human HeLa cells after 48 hrs by MTS assay; type: functional, cell-based
Structure (SMILES),IC50 [1],EC50 [2],EC50 [3],EC50 (HeLa)
COc1cc2c(cc1OCc1ccncc1)Nc1cc(-c3ccc([N+](=O)[O-])c(OC)c3)ccc1C(=O)N2,6.8 nM,50 nM,> 10000 nM,> 59000 nM
COc1cc2c(cc1OCC1CCCCO1)Nc1cc(-c3ccc([N+](=O)[O-])c(OC)c3)ccc1C(=O)N2 (stereo not drawn),4.8 nM,200 nM,2400 nM,2000 nM
COc1cc2c(cc1CCC(=O)N(C)C)Nc1cc(-c3ccc([N+](=O)[O-])c(OC)c3)ccc1C(=O)N2,7.9 nM,50 nM,> 10000 nM,> 59000 nM
COc1cc(-c2ccc3c(c2)Nc2ccccc2NC3=O)ccc1[N+](=O)[O-],,,,47700 nM
COc1cc2c(cc1CC(C)(C)O)Nc1cc(-c3ccc([N+](=O)[O-])c(OC)c3)ccc1C(=O)N2,3.4 nM,40 nM,1800 nM,> 59000 nM
COc1cc2c(cc1OCc1ccccc1C(F)(F)F)Nc1cc(-c3ccc([N+](=O)[O-])c(OC)c3)ccc1C(=O)N2,1050 nM,,> 10000 nM,> 59000 nM
COc1cc2c(cc1CCC(C)(C)O)Nc1cc(-c3ccc([N+](=O)[O-])c(OC)c3)ccc1C(=O)N2,4 nM,600 nM,> 10000 nM,> 59000 nM
COc1cc2c(cc1C(=O)N(C)C)NC(=O)c1ccc(-c3ccc([N+](=O)[O-])c(OC)c3)cc1N2,15.5 nM,3500 nM,> 10000 nM,45000 nM
COc1cc2c(cc1CCc1ccncc1)Nc1cc(-c3ccc([N+](=O)[O-])c(OC)c3)ccc1C(=O)N2,16.2 nM,2100 nM,> 10000 nM,9600 nM

# Next, values leading:
IC50 [1],EC50 [2],EC50 [3],EC50 (HeLa),Structure (SMILES)
2.6 nM,1500 nM,> 10000 nM,> 59000 nM,COc1cc2c(cc1CCCO)Nc1cc(-c3ccc([N+](=O)[O-])c(OC)c3)ccc1C(=O)N2
22 nM,> 10000 nM,> 10000 nM,> 59000 nM,COC(=O)CCc1cc2c(cc1OC)NC(=O)c1ccc(-c3ccc([N+](=O)[O-])c(OC)c3)cc1N2
0.98 nM,2600 nM,> 10000 nM,17300 nM,COc1cc2c(cc1OCCCN)Nc1cc(-c3ccc([N+](=O)[O-])c(OC)c3)ccc1C(=O)N2
0.7 nM,2000 nM,> 10000 nM,> 59000 nM,COc1cc2c(cc1OCCCCO)Nc1cc(-c3ccc([N+](=O)[O-])c(OC)c3)ccc1C(=O)N2
3.5 nM,900 nM,> 10000 nM,> 59000 nM,COc1cc2c(cc1CCO)Nc1cc(-c3ccc([N+](=O)[O-])c(OC)c3)ccc1C(=O)N2
9 nM,350 nM,> 10000 nM,4500 nM,CCc1cc2c(cc1OC)Nc1cc(-c3ccc([N+](=O)[O-])c(OC)c3)ccc1C(=O)N2
4 nM,> 10000 nM,> 10000 nM,> 59000 nM,COc1cc2c(cc1OCc1csc(C)n1)Nc1cc(-c3ccc([N+](=O)[O-])c(OC)c3)ccc1C(=O)N2
0.58 nM,3100 nM,> 10000 nM,> 59000 nM,COc1cc2c(cc1OCCO)Nc1cc(-c3ccc([N+](=O)[O-])c(OC)c3)ccc1C(=O)N2
1.9 nM,220 nM,4300 nM,22000 nM,COc1cc2c(cc1CCCO)NC(=O)c1ccc(-c3ccc([N+](=O)[O-])c(OC)c3)cc1N2
11.2 nM,> 10000 nM,> 10000 nM,> 59000 nM,COC(=O)c1cc2c(cc1OC)Nc1cc(-c3ccc([N+](=O)[O-])c(OC)c3)ccc1C(=O)N2
3.1 nM,3100 nM,> 10000 nM,52000 nM,COCCOCCOc1cc2c(cc1OC)NC(=O)c1ccc(-c3ccc([N+](=O)[O-])c(OC)c3)cc1N2
0.6 nM,280 nM,> 10000 nM,> 59000 nM,COc1cc2c(cc1OC)Nc1cc(-c3ccc([N+](=O)[O-])c(OC)c3)ccc1C(=O)N2
0.9 nM,70 nM,> 10000 nM,> 59000 nM,COc1cc2c(cc1O)Nc1cc(-c3ccc([N+](=O)[O-])c(OC)c3)ccc1C(=O)N2
8.1 nM,200 nM,2400 nM,2000 nM,COc1cc2c(cc1OCCN1CCOCC1)Nc1cc(-c3ccc([N+](=O)[O-])c(OC)c3)ccc1C(=O)N2
